In US8557816B2, “Aurora kinase modulators and method of use” (Amgen Inc., priority 2007, dated 2013):

Columns and labels:
AuroraB = target: T1, AuroraB (Homo sapiens, UniProt Q96GD4); assay: AuroraB Homogeneous Time Resolved Fluorescent (HTRF) kinase assay; assay type: biochemical; settings: average; read-out: AurB_IC50_IP (uM Avg)
T1 construct: 20 μL of AuroraB FL H is for a final volume of 41 μL; His
Method in brief: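 Read-out is time-resolved FRET between europium anti-phospho-H3 antibody and streptavidin-APC, added in EDTA buffer to stop the reaction and equilibrated about 60 min (ex 320, em 615 and 655 nm). Preceding reaction: ~90 min, full-length enzyme, ATP, 0.1 μM biotin-Histone H3 substrate, Mg/Mn HEPES buffer pH 7.5.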

AuroraA-TPX2 = target: T2, AuroraA-TPX2 (Homo sapiens, UniProt O14965); assay: AuroraA-TPX2 Homogeneous Time Resolved Fluorescent (HTRF) kinase assay; assay type: biochemical; settings: average; read-out: AurA_IC50_IP (uM Avg)
T2 construct: 20 μL of AuroraA-TPX2 KD GST for a final volume of about 41 μL; GST
T2 sequence (O14965 133-383 limits assumed): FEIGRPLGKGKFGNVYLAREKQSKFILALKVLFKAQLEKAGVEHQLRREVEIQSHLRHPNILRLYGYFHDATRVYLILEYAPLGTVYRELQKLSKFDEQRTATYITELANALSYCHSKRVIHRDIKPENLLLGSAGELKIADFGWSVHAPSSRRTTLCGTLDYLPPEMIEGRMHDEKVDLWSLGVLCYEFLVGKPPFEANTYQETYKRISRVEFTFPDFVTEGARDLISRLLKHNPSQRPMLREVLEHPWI
T2 sequence (Q9ULW0 1-43 partner limits assumed): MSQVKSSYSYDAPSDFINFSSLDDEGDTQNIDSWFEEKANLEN
Method in brief: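 HTRF read-out (Eu 615 nm to APC 655 nm) of phosphorylated biotin-PLK, detected with 0.02 nM europium anti-phosphoPLK antibody and 0.0005 mg/mL SA-APC after overnight equilibration.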

T1 sequence (Q96GD4 whole entry): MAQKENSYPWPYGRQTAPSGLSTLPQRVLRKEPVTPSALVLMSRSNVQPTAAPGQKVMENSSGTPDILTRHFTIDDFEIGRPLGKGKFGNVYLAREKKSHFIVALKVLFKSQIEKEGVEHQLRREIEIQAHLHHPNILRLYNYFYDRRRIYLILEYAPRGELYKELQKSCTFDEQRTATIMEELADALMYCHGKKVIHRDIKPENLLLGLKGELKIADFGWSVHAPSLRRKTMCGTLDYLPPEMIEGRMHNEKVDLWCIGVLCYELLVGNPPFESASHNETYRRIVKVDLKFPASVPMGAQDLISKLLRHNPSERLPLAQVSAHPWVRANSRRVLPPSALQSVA

| SMILES | IC50 (AuroraB) [µM] | IC50 (AuroraA-TPX2) [µM] |
| --- | --- | --- |
| COc1cnc2c(Oc3ccc(Nc4nnc(-c5ccc(SC)cc5)c5ccccc45)cc3)ccnc2c1 [compound 237, N-(4-((7-(methyloxy)-1,5-naphthyridin-4-yl)oxy)phenyl)-4-(4-(methylthio)phenyl)-1-phthalazinamine] | 0.005 | 0.038 |
| COc1ccc2nccc(Oc3ccc(Nc4nnc(-c5ccccc5)c5ccccc45)cc3)c2c1 [compound 238, N-(4-((6-(methyloxy)-4-quinolinyl)oxy)phenyl)-4-phenyl-1-phthalazinamine] | 0.005 | 0.265 |
| COc1ccc2nccc(Oc3ccc(Nc4nnc(-c5ccc(Cl)cc5)c5ccccc45)cc3)c2c1 [compound 239, 4-(4-chlorophenyl)-N-(4-((6-(methyloxy)-4-quinolinyl)oxy)phenyl)-1-phthalazinamine] | 0.008 | 0.12 |
| COc1cccc(-c2nnc(Nc3ccc(Oc4ccnc5cc(-c6cncn6C)sc45)cc3)c3ccccc23)n1 [compound 240, N-(4-((2-(1-methyl-1H-imidazol-5-yl)thieno[3,2-b]pyridin-7-yl)oxy)phenyl)-4-(6-(methyloxy)-2-pyridinyl)-1-phthalazinamine] | 0.001 | 0.006 |
| Clc1ccc(-c2nnc(Nc3ccc(Oc4ccnc5[nH]ccc45)cc3)c3ccccc23)cc1 [compound 241, 4-(4-chlorophenyl)-N-(4-(1H-pyrrolo[2,3-b]pyridin-4-yloxy)phenyl)-1-phthalazinamine] | 0.001 | 0.089 |
| N#Cc1ccc2c(Oc3ccc(Nc4nnc(-c5ccc(Cl)cc5)c5ccccc45)cc3)ccnc2c1 [compound 242, 4-((4-((4-(4-chlorophenyl)-1-phthalazinyl)amino)phenyl)oxy)-7-quinolinecarbonitrile] | 0.022 | 0.173 |
| COc1cnc2c(Oc3ccc(Nc4nnc(-c5ccc(C)c(F)c5)c5ccccc45)cc3)ccnc2c1 [compound 243, 4-(3-fluoro-4-methylphenyl)-N-(4-((7-(methyloxy)-1,5-naphthyridin-4-yl)oxy)phenyl)-1-phthalazinamine] | 0.005 | 0.014 |
| Brc1cnc2c(Oc3ccc(Nc4nnc(-c5ccccc5)c5ccccc45)cc3)ccnc2c1 [compound 245, N-(4-((7-bromo-1,5-naphthyridin-4-yl)oxy)phenyl)-4-phenyl-1-phthalazinamine] | 0.006 | 0.153 |
| COc1cnc2c(Oc3ccc(Nc4nnc(-c5ccc(F)c(C)c5)c5ccccc45)cc3)ccnc2c1 [compound 246, 4-(4-fluoro-3-methylphenyl)-N-(4-((7-(methyloxy)-1,5-naphthyridin-4-yl)oxy)phenyl)-1-phthalazinamine] | 0.008 | 0.032 |
| COc1cnc2c(N(C)c3ccc(Nc4nnc(-c5cc(C)cs5)c5ccccc45)cc3)ccnc2c1 [compound 247, N-methyl-N-(7-(methyloxy)-1,5-naphthyridin-4-yl)-N′-(4-(4-methyl-2-thienyl)-1-phthalazinyl)-1,4-benzenediamine] | 0.032 | 0.219 |
| Cn1cncc1-c1cc2nccc(Oc3ccc(Nc4nnc(-c5ccc(Cl)cc5)c5ccccc45)cc3)c2s1 [compound 249, 4-(4-chlorophenyl)-N-(4-((2-(1-methyl-1H-imidazol-5-yl)thieno[3,2-b]pyridin-7-yl)oxy)phenyl)-1-phthalazinamine] | 0.001 | 0.004 |
| Clc1ccc(-c2nnc(Nc3ccc(Oc4ccnc5ccsc45)cc3)c3ccccc23)cc1 [compound 250, 4-(4-chlorophenyl)-N-(4-(thieno[3,2-b]pyridin-7-yloxy)phenyl)-1-phthalazinamine] | 0.003 | 0.094 |
| c1ccc(-c2nnc(Nc3ccc(Oc4ccnc5ccsc45)cc3)c3ccccc23)cc1 [compound 251, 4-phenyl-N-(4-(thieno[3,2-b]pyridin-7-yloxy)phenyl)-1-phthalazinamine] | 0.004 | 0.376 |
| Cc1ccc(-c2nnc(Nc3ccc(Oc4ccnc5ccsc45)cc3)c3ccccc23)cc1 [compound 252, 4-(4-methylphenyl)-N-(4-(thieno[3,2-b]pyridin-7-yloxy)phenyl)-1-phthalazinamine] | 0.005 | 0.077 |
| COc1cnc2c(Oc3ccc(Nc4nnc(-c5ccc(Cl)cc5OC)c5ccccc45)cc3)ccnc2c1 [compound 253, 4-(4-chloro-2-(methyloxy)phenyl)-N-(4-((7-(methyloxy)-1,5-naphthyridin-4-yl)oxy)phenyl)-1-phthalazinamine] | 0.009 | 0.173 |
| COc1cc2nncc(Oc3ccc(Nc4nnc(-c5ccccc5)c5ccccc45)cc3)c2cc1OC [compound 254, N-(4-((6,7-bis(methyloxy)-4-cinnolinyl)oxy)phenyl)-4-phenyl-1-phthalazinamine] | 0.253 | 1.64 |
| CCc1cc(-c2ccc(Cl)cc2)nnc1Nc1ccc(Oc2ccnc3cc(OC)cnc23)cc1 [compound 256, 6-(4-chlorophenyl)-4-ethyl-N-(4-((7-(methyloxy)-1,5-naphthyridin-4-yl)oxy)phenyl)-3-pyridazinamine] | 0.003 | 0.012 |
| c1ccc(-c2nnc(Nc3ccc(Oc4ncnc5nc[nH]c45)cc3)c3ccccc23)cc1 [compound 257, 4-phenyl-N-(4-(7H-purin-6-yloxy)phenyl)-1-phthalazinamine] | 0.129 | 0.868 |
| COc1cnc2c(Oc3ccc(Nc4nnc(-c5cccc(N(C)C)c5)c5ccccc45)cc3)ccnc2c1 [compound 258, 4-(3-(dimethylamino)phenyl)-N-(4-((7-(methyloxy)-1,5-naphthyridin-4-yl)oxy)phenyl)-1-phthalazinamine] | 0.002 | 0.005 |
| O=C(c1cc2nccc(Oc3ccc(Nc4nnc(-c5ccc(Cl)cc5)c5ccccc45)cc3)c2s1)N1CCOCC1 [compound 259, 4-(4-chlorophenyl)-N-(4-((2-(4-morpholinylcarbonyl)thieno-[3,2-b]pyridin-7-yl)oxy)phenyl)-1-phthalazinamine] | 0.006 | 0.023 |
| COc1cnc2c(Oc3ccc(Nc4nnc(-c5cc(C)c(C)s5)c5ccccc45)cc3)ccnc2c1 [compound 260, 4-(4,5-dimethyl-2-thienyl)-N-(4-((7-(methyloxy)-1,5-naphthyridin-4-yl)oxy)phenyl)-1-phthalazinamine] | 0.009 | 0.008 |
| COc1cnc2c(Oc3ccc(Nc4nnc(-c5c(C)nn(C)c5C)c5ccccc45)cc3)ccnc2c1 [compound 261, N-(4-((7-(methyloxy)-1,5-naphthyridin-4-yl)oxy)phenyl)-4-(1,3,5-trimethyl-1H-pyrazol-4-yl)-1-phthalazinamine] | 0.156 | 1.61 |
| COc1cnc2c(Oc3ccc(Nc4nnc(-c5ccc([S+](C)[O-])cc5)c5ccccc45)cc3)ccnc2c1 (stereo not drawn) [compound 262, N-(4-((7-(methyloxy)-1,5-naphthyridin-4-yl)oxy)phenyl)-4-(4-(methylsulfinyl)phenyl)-1-phthalazinamine] | 0.006 | 0.102 |
| COc1cnc2c(Oc3ccc(Nc4nnc(-c5ccc(S(C)(=O)=O)cc5)c5ccccc45)cc3)ccnc2c1 [compound 263, N-(4-((7-(methyloxy)-1,5-naphthyridin-4-yl)oxy)phenyl)-4-(4-(methylsulfonyl)phenyl)-1-phthalazinamine] | 0.002 | 0.036 |
| c1ccc(-c2nnc(Nc3ccc(Oc4ccnc5ccc(N6CCOCC6)cc45)cc3)c3ccccc23)cc1 [compound 264, N-(4-((6-(4-morpholinyl)-4-quinolinyl)oxy)phenyl)-4-phenyl-1-phthalazinamine] | 0.016 | 0.139 |
| N#Cc1cnc2c(Oc3ccc(Nc4nnc(-c5ccc(Cl)cc5)c5ccccc45)cc3)ccnc2c1 [compound 265, 8-((4-((4-(4-chlorophenyl)-1-phthalazinyl)amino)phenyl)oxy)-1,5-naphthyridine-3-carbonitrile] | 0.009 | 0.113 |
| Clc1ccc(-c2nnc(Nc3ccc(Oc4ncnc5[nH]cnc45)cc3)c3ccccc23)cc1 [compound 266, 4-(4-chlorophenyl)-N-(4-(9H-purin-6-yloxy)phenyl)-1-phthalazinamine] | 0.045 | 0.679 |
| COc1cnc2c(Oc3ccc(Nc4nnc(-c5ccc(C)nc5)c5ccccc45)cc3)ccnc2c1 [compound 268, N-(4-((7-(methyloxy)-1,5-naphthyridin-4-yl)oxy)phenyl)-4-(6-methyl-3-pyridinyl)-1-phthalazinamine] | 0.003 | 0.064 |
| COc1ccc2nccc(Oc3ccc(Nc4nnc(-c5cc(C)cs5)c5ccccc45)cc3)c2c1 [compound 269, N-(4-((6-(methyloxy)-4-quinolinyl)oxy)phenyl)-4-(4-methyl-2-thienyl)-1-phthalazinamine] | 0.006 | 0.049 |
| CCN(CC)C(=O)c1cc2nccc(Oc3ccc(Nc4nnc(-c5ccc(Cl)cc5)c5ccccc45)cc3)c2s1 [compound 270, 7-((4-((4-(4-chlorophenyl)-1-phthalazinyl)amino)phenyl)oxy)-N,N-diethylthieno[3,2-b]pyridine-2-carboxamide] | 0.01 | 0.084 |
